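The compound was tested at five concentrations on cells cultured in 96-well plates, with a 48-hour exposure period. Definition used: TGI = concentration required for complete inhibition of growth.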
Assays:
Assay in all cases: NCI-60 cell line screen, 48 h
[1] = test system: 786-0 renal
[2] = test system: A498 renal
[3] = test system: A549 NSCLC
[4] = test system: ACHN renal
[5] = test system: BT-549 breast
[6] = test system: CAKI-1 renal
[7] = test system: CCRF-CEM leukemia
[8] = test system: COLO 205 colon
[9] = test system: DU-145 prostate
[10] = test system: EKVX NSCLC
[11] = test system: HCC-2998 colon
[12] = test system: HCT-116 colon
[13] = test system: HCT-15 colon
[14] = test system: HL-60(TB) leukemia
[15] = test system: HOP-62 NSCLC
[16] = test system: HOP-92 NSCLC
[17] = test system: HS 578T breast
[18] = test system: HT29 colon
[19] = test system: IGROV1 ovarian
[20] = test system: K-562 leukemia
[21] = test system: KM12 colon
[22] = test system: LOX IMVI melanoma
[23] = test system: M14 melanoma
[24] = test system: MALME-3M melanoma
[25] = test system: MCF7 breast
[26] = test system: MDA-MB-231 breast
[27] = test system: MDA-MB-435
[28] = test system: MDA-N
[29] = test system: MOLT-4 leukemia
[30] = test system: NCI-H226 lung
[31] = test system: NCI-H23 lung
[32] = test system: NCI-H460 lung
[33] = test system: NCI-H522 lung
[34] = test system: NCI/ADR-RES ovarian
[35] = test system: OVCAR-3 ovarian
[36] = test system: OVCAR-4 ovarian
[37] = test system: OVCAR-5 ovarian
[38] = test system: OVCAR-8 ovarian
[39] = test system: PC-3 prostate
[40] = test system: RPMI-8226 leukemia
[41] = test system: RXF 393 renal
[42] = test system: SF-268 CNS
[43] = test system: SF-295 CNS
[44] = test system: SF-539 CNS
[45] = test system: SK-MEL-2 melanoma
[46] = test system: SK-MEL-28 melanoma
[47] = test system: SK-MEL-5 melanoma
[48] = test system: SK-OV-3 ovarian
[49] = test system: SN12C renal
[50] = test system: SNB-19 CNS
[51] = test system: SNB-75 CNS
[52] = test system: SW-620 colon
[53] = test system: T-47D breast
[54] = test system: TK-10 renal
[55] = test system: U251 CNS
[56] = test system: UACC-257 melanoma
[57] = test system: UACC-62 melanoma
[58] = test system: UO-31 renal
[59] = test system: SR leukemia

For `CCCCCCCCCCCCCCCCCCNc1nc(=O)n(C2CC(O)C(COP(=O)(O)OCC(COP(=O)(O)OC3C(CO)OC(n4ccc(N)nc4=O)C3O)OCCCCCCCCCCCCCCCCCC)O2)cc1F` (centres undefined), the TGI [1] was 33.3 µM, the TGI [2] was over 100 µM and the TGI [3] was over 100 µM. For the same compound, the TGI [4] was over 100 µM, the TGI [5] was over 100 µM and the TGI [6] was over 100 µM. The TGI [7] was over 100 µM, the TGI [8] was 37.7 µM and the TGI [9] was over 100 µM. For the same compound, the TGI [10] was over 100 µM, the TGI [11] was over 100 µM and the TGI [12] was over 100 µM. For the same compound, the TGI [13] was over 100 µM, the TGI [14] was over 100 µM and the TGI [15] was over 100 µM. It also gave a TGI [16] of over 100 µM, a TGI [17] of over 100 µM and a TGI [18] of over 100 µM. For the same compound, the TGI [19] was over 100 µM, the TGI [20] was over 100 µM and the TGI [21] was over 100 µM. For the same compound, the TGI [22] was 42.5 µM, the TGI [23] was over 100 µM and the TGI [24] was over 100 µM. For the same compound, the TGI [25] was over 100 µM, the TGI [26] was over 100 µM and the TGI [27] was over 100 µM. It also gave a TGI [28] of over 100 µM, a TGI [29] of over 100 µM and a TGI [30] of over 100 µM. It also gave a TGI [31] of over 100 µM, a TGI [32] of 30.9 µM and a TGI [33] of over 100 µM. For the same compound, the TGI [34] was over 100 µM, the TGI [35] was over 100 µM and the TGI [36] was over 100 µM. The TGI [37] was over 100 µM, the TGI [38] was over 100 µM and the TGI [39] was 35.4 µM. It also gave a TGI [40] of 74.2 µM, a TGI [41] of 40.8 µM and a TGI [42] of over 100 µM. It also gave a TGI [43] of over 100 µM, a TGI [44] of over 100 µM and a TGI [45] of over 100 µM. For the same compound, the TGI [46] was over 100 µM, the TGI [47] was over 100 µM and the TGI [48] was over 100 µM. For the same compound, the TGI [49] was over 100 µM, the TGI [50] was 56.5 µM and the TGI [51] was over 100 µM. For the same compound, the TGI [52] was over 100 µM, the TGI [53] was over 100 µM and the TGI [54] was over 100 µM. It also gave a TGI [55] of 34.6 µM, a TGI [56] of over 100 µM and a TGI [57] of over 100 µM. The TGI [58] was over 100 µM.
`Clc1ccc(Cc2nc3cc(Cl)ccc3o2)cc1` showed a TGI [1] of over 100 µM, a TGI [3] of over 100 µM and a TGI [4] of over 100 µM. The TGI [5] was over 100 µM, the TGI [6] was over 100 µM and the TGI [7] was 92.3 µM. It also gave a TGI [8] of 87.4 µM, a TGI [9] of over 100 µM and a TGI [10] of 80.9 µM. It also gave a TGI [11] of 53.2 µM, a TGI [12] of over 100 µM and a TGI [13] of over 100 µM. The TGI [14] was over 100 µM, the TGI [15] was over 100 µM and the TGI [16] was over 100 µM. For the same compound, the TGI [17] was over 100 µM, the TGI [18] was over 100 µM and the TGI [19] was over 100 µM. It also gave a TGI [20] of over 100 µM, a TGI [21] of over 100 µM and a TGI [22] of over 100 µM. It also gave a TGI [23] of over 100 µM, a TGI [24] of over 100 µM and a TGI [25] of over 100 µM. For the same compound, the TGI [26] was over 100 µM, the TGI [27] was 95.6 µM and the TGI [28] was over 100 µM. For the same compound, the TGI [29] was over 100 µM, the TGI [30] was over 100 µM and the TGI [31] was over 100 µM. The TGI [32] was over 100 µM, the TGI [33] was 97 µM and the TGI [34] was over 100 µM. It also gave a TGI [35] of 70.9 µM, a TGI [36] of over 100 µM and a TGI [37] of over 100 µM. For the same compound, the TGI [38] was over 100 µM, the TGI [39] was over 100 µM and the TGI [40] was over 100 µM. For the same compound, the TGI [42] was over 100 µM, the TGI [43] was 71.8 µM and the TGI [44] was over 100 µM. The TGI [45] was 35.4 µM, the TGI [46] was over 100 µM and the TGI [47] was 33.1 µM. The TGI [48] was 68.7 µM, the TGI [49] was over 100 µM and the TGI [50] was over 100 µM. It also gave a TGI [59] of over 100 µM, a TGI [52] of over 100 µM and a TGI [53] of 97.9 µM. For the same compound, the TGI [54] was over 100 µM, the TGI [55] was 91.2 µM and the TGI [56] was 92.2 µM. It also gave a TGI [57] of over 100 µM and a TGI [58] of over 100 µM.

Source: PubChem BioAssay (NCI)
